Assay in all cases: Inhibitor Assay
Holding throughout (conditions): 30 °C

For assay [1], the target named is T1, Tyrosine-protein phosphatase non-receptor type 1 (Homo sapiens, UniProt P18031).
T1 sequence (P18031 whole entry): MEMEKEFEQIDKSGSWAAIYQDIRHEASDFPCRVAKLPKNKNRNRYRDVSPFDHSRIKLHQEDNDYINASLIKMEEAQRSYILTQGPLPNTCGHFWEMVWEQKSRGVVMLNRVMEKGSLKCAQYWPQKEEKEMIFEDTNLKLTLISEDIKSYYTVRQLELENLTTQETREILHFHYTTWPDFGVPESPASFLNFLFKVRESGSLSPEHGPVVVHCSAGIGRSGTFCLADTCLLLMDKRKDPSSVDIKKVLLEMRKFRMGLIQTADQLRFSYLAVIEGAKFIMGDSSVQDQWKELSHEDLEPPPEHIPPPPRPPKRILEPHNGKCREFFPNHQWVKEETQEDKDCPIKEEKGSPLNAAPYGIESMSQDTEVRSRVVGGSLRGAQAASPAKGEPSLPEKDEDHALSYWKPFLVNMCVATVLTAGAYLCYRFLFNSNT
The procedure:
The assay mixture ([…]) containing 50 mM MOPS (pH 6.5), 2 mM pNPP and PTP1B were monitored at 405 nm for 2 min at 30 C.

The target in assay [2] is Tyrosine-protein phosphatase non-receptor type 6 (Homo sapiens, UniProt P29350).
The target in assay [3] is Receptor-type tyrosine-protein phosphatase F (Homo sapiens, UniProt P10586).
Assay [4] addresses T2, Tyrosine-protein phosphatase non-receptor type 2 (Homo sapiens, UniProt P17706).
T2 sequence (P17706 whole entry): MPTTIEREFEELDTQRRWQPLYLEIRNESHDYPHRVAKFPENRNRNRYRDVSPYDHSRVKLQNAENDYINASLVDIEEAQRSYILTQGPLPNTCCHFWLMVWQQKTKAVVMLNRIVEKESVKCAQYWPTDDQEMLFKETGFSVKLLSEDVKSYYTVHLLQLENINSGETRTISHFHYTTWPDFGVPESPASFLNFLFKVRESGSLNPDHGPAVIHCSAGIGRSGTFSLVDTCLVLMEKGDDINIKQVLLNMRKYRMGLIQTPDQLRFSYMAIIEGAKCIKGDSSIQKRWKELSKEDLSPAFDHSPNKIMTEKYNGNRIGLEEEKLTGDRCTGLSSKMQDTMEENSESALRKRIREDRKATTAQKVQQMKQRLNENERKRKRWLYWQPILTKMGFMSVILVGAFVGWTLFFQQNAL

Assay [5] addresses T3, Tyrosine-protein phosphatase non-receptor type 11 (Homo sapiens, UniProt Q06124).
T3 sequence (Q06124 whole entry): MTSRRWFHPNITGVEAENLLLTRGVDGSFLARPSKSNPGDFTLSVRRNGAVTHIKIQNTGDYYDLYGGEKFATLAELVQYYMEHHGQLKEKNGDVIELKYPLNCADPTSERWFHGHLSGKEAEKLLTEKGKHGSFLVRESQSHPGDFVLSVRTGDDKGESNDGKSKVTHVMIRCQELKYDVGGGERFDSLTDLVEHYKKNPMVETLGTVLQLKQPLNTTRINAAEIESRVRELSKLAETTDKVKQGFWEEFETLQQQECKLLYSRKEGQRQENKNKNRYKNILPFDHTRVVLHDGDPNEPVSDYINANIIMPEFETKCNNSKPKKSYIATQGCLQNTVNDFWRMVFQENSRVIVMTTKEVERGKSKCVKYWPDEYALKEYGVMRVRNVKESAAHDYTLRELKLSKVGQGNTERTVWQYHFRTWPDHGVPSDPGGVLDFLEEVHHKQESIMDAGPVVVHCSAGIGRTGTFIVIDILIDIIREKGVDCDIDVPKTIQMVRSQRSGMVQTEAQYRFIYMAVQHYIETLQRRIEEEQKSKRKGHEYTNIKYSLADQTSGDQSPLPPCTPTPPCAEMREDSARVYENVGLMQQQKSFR

Sequence of Receptor-type tyrosine-protein phosphatase F (P10586 whole entry): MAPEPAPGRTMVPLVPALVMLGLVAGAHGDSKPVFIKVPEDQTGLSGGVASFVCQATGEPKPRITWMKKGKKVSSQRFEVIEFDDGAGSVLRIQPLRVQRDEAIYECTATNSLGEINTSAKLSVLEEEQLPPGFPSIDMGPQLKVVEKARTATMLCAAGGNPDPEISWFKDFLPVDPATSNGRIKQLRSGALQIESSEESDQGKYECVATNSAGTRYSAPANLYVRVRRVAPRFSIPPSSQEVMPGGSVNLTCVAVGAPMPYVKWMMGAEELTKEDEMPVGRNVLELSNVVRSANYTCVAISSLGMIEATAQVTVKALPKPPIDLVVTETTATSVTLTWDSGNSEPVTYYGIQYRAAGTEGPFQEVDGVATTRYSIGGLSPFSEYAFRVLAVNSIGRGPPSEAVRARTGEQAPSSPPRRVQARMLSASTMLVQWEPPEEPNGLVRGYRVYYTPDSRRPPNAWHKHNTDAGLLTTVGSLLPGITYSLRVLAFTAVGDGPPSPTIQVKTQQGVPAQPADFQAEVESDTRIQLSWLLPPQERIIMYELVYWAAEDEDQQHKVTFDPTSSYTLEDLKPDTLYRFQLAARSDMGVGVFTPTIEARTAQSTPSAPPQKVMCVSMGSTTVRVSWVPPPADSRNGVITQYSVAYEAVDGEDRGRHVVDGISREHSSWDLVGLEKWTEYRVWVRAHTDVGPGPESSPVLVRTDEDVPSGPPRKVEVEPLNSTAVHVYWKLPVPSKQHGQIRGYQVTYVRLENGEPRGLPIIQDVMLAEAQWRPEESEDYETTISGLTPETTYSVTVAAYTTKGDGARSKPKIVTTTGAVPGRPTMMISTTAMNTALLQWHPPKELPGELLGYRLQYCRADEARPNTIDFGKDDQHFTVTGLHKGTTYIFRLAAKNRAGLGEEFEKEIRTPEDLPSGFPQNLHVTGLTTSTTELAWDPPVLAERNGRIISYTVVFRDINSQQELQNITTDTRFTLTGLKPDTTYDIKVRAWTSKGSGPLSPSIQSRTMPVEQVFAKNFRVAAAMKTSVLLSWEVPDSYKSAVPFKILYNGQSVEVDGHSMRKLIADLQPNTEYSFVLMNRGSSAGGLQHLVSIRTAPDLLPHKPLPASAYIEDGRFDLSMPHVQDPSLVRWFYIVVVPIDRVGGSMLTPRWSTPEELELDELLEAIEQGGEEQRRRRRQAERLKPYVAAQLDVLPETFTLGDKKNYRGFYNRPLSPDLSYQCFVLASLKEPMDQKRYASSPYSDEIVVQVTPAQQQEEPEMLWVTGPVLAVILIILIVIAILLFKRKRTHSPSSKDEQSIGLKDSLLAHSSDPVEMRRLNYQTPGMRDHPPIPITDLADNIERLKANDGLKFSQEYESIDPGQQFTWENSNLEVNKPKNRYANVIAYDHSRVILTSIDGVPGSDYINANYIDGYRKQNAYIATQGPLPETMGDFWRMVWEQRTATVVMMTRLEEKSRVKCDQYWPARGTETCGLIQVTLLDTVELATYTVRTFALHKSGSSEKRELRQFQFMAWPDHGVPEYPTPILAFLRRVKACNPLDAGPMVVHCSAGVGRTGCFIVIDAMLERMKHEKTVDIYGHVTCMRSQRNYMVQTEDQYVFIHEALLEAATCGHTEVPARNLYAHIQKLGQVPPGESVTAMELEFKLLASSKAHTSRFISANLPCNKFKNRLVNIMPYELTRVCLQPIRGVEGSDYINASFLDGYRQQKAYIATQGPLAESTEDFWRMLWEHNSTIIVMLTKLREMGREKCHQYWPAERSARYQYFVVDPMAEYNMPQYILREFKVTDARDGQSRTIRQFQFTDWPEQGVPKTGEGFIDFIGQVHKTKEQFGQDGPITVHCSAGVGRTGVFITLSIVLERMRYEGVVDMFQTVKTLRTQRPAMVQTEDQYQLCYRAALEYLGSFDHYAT
Sequence of Tyrosine-protein phosphatase non-receptor type 6 (P29350 whole entry): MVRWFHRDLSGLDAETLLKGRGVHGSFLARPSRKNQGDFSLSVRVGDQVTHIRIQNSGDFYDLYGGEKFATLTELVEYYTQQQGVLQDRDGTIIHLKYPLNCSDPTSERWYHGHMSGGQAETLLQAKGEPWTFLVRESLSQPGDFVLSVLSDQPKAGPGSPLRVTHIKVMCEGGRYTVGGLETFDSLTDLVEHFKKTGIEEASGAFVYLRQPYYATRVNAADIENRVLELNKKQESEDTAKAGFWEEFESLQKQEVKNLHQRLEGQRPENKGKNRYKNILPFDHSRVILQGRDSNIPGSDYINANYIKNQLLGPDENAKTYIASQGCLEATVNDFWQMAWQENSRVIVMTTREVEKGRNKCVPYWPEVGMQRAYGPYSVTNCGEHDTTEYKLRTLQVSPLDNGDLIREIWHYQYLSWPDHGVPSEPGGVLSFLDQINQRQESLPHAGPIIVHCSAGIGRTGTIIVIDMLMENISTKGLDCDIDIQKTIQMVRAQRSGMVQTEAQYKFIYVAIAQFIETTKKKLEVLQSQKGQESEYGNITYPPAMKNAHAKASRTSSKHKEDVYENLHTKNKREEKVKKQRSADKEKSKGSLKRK

The compound `COC(=O)C(=O)c1ccc(-n2cc(CO[C@H]3O[C@H](COCc4ccccc4)[C@@H](OCc4ccccc4)[C@H](OCc4ccccc4)[C@H]3OCc3ccccc3)nn2)cc1` [1-(4-(2-Methoxy-2-oxoacetyl)phenyl)-1H-1,2,3-triazol-4-ylmethyl 2,3,4,6-tetra-O-benzyl-a-D-glucopyranoside (17)] displayed a half-maximal inhibitory concentration (IC50) in assay [1] of 12.3 µM.

With `O=C(O)C(=O)c1ccc(-n2cc(CO[C@H]3O[C@H](COCc4ccccc4)[C@@H](OCc4ccccc4)[C@H](OCc4ccccc4)[C@H]3OCc3ccccc3)nn2)cc1` [1-(4-(Carboxycarbonyl)phenyl)-1H-1,2,3-triazol-4-ylmethyl 2,3,4,6-tetra-O-benzyl a-D-glucopyranoside (19)], the IC50 in assay [2] is over 100 µM; in assay [3], over 100 µM; in assay [4], 6.4 µM; in assay [5], 55.4 µM; in assay [1], 5.6 µM.

Compound `COC(=O)c1ccc(-n2cc(CO[C@H]3O[C@H](COCc4ccccc4)[C@@H](OCc4ccccc4)[C@H](OCc4ccccc4)[C@H]3OCc3ccccc3)nn2)cc1` [1-(4-(Methoxycarbonyl)phenyl)-1H-1,2,3-triazol-4-ylmethyl 2,3,4,6-tetra-O-benzyl a-D-glucopyranoside (16)] showed an IC50 in assay [1] of over 100 µM.

The compound `CC(=O)c1ccc(-n2cc(CO[C@H]3O[C@H](COCc4ccccc4)[C@@H](OCc4ccccc4)[C@H](OCc4ccccc4)[C@H]3OCc3ccccc3)nn2)cc1` [1-(4-Acetylphenyl)-1H-1,2,3-triazol-4-ylmethyl 2,3,4,6-tetra-O-benzyl a-D-glucopyranoside (11)] came in with an IC50 in assay [1] of over 100 µM.

As for `O=C(O)c1ccc(-n2cc(CO[C@H]3O[C@H](COCc4ccccc4)[C@@H](OCc4ccccc4)[C@H](OCc4ccccc4)[C@H]3OCc3ccccc3)nn2)cc1` [1-(4-Carboxyphenyl)-1H-1,2,3-triazol-4-ylmethyl 2,3,4,6-tetra-O-benzyl a-D-glucopyranoside (18)], the concentration for half-maximal inhibition (IC50) in assay [1] is 11.1 µM.

For `[N-]=[N+]=Nc1ccc(C(=O)C(=O)O)cc1` [1-[4-(carboxycarbonyl)phenyl]triaz-2-yn-2-ium-1-ide (7)], half-maximal inhibition in assay [1] (IC50) was put at 30.2 µM.

Turning to `COC(=O)C(=O)c1ccc(-n2cc(COC[C@H]3O[C@H](OC)[C@H](OCc4ccccc4)[C@@H](OCc4ccccc4)[C@@H]3OCc3ccccc3)nn2)cc1` [Methyl 2,3,4-tri-O-benzyl-6-O-[1-(4-(2-methoxy-2-oxoacetyl)phenyl)-1H-1,2,3-triazol-4-ylmethyl] a-D-glucopyranoside (13)], half-maximal inhibition in assay [1] (IC50) required 12.7 µM.

`CO[C@H]1O[C@H](COCc2cn(-c3ccc(C(=O)C(=O)O)cc3)nn2)[C@@H](OCc2ccccc2)[C@H](OCc2ccccc2)[C@H]1OCc1ccccc1` [Methyl 2,3,4-tri-O-benzyl-6-O-[1-(4-(carboxycarbonyl)phenyl)-1H-1,2,3-triazol-4-ylmethyl] a-D-glucopyranoside (15)]: the IC50 is over 100 µM in assay [2]; over 100 µM in assay [3]; 14.5 µM in assay [4]; over 100 µM in assay [5]; 3.2 µM in assay [1].

`COC(=O)c1ccc(-n2cc(COC[C@H]3O[C@H](OC)[C@H](OCc4ccccc4)[C@@H](OCc4ccccc4)[C@@H]3OCc3ccccc3)nn2)cc1` [Methyl 2,3,4-tri-O-benzyl-6-O-[1-(4-(methoxycarbonyl)-phenyl)-1H-1,2,3-triazol-4-ylmethyl] a-D-glucopyranoside (12)] returned an IC50 in assay [1] of over 100 µM.

In assay [1], `CO[C@H]1O[C@H](COCc2cn(-c3ccc(C(C)=O)cc3)nn2)[C@@H](OCc2ccccc2)[C@H](OCc2ccccc2)[C@H]1OCc1ccccc1` [Methyl 2,3,4-tri-O-benzyl-6-O-[1-(4-acetylphenyl)-1H-1,2,3-triazol-4-ylmethyl] a-D-glucopyranoside (10)] gave an IC50 of over 100 µM.

Consider `CO[C@H]1O[C@H](COCc2cn(-c3ccc(C(=O)O)cc3)nn2)[C@@H](OCc2ccccc2)[C@H](OCc2ccccc2)[C@H]1OCc1ccccc1` [Methyl 2,3,4-tri-O-benzyl-6-O-[1-(4-carboxyphenyl)-1H-1,2,3-triazol-4-ylmethyl] a-D-glucopyranoside (14)], for which, in assay [1], the IC50 is over 100 µM.

Source of the values: BindingDB's records for doi:10.1016/j.carres.2010.10.023 (East China University of Science and Technology, 2011).
